Experimental data taken from the NIST ThermoML archive (doi:10.1016/j.jct.2006.01.010).
± gives the expanded uncertainty stated by the source.

Tests used:
[1] = Liquid, Ebulliometric method (Recirculating still)
[2] = refractive index (Na D-line) (dimensionless); details: 298.15 K; 101.33 kPa; Liquid; Standard Abbe refractometry

O=C1CCCC1 [cyclopentanone]
[1]
Details	vapor or sublimation pressure [kPa]
323.15 K	5.31 ± 0.06
333.15 K	8.49 ± 0.08
343.15 K	13.03 ± 0.11
353.15 K	19.61 ± 0.15
358.85 K	24.48 ± 0.18
363.15 K	28.61 ± 0.29
363.45 K	29.04 ± 0.29
372.25 K	39.48 ± 0.26
378.35 K	48.32 ± 0.31
384.15 K	57.77 ± 0.36
388.85 K	67.18 ± 0.42
393.25 K	76.67 ± 0.47
397.65 K	87.37 ± 0.51
399.75 K	92.98 ± 0.54
403.05 K	101.76 ± 0.54

Details	refractive index
[2]	1.4349 ± 0.0008

O=C1CCCCC1 [cyclohexanone]
[1]
Details	vapor or sublimation pressure [kPa]
343.15 K	5.57 ± 0.06
353.15 K	8.6 ± 0.08
363.15 K	13.07 ± 0.1
373.15 K	18.9 ± 0.15
385.45 K	29.1 ± 0.19
394.05 K	38.41 ± 0.24
401.35 K	48.2 ± 0.29
407.35 K	57.43 ± 0.34
414.75 K	70.59 ± 0.38
419.8 K	81.35 ± 0.45
424.05 K	91.55 ± 0.49
427.8 K	101.1 ± 0.51

Details	refractive index
[2]	1.4481 ± 0.0007

ClC(Cl)C(Cl)Cl [1,1,2,2-tetrachloroethane]
[1]
Details	vapor or sublimation pressure [kPa]
343.15 K	7.24 ± 0.08
353.15 K	11.23 ± 0.1
363.15 K	16.65 ± 0.13
373.15 K	24.17 ± 0.17
379.75 K	30.48 ± 0.23
389.55 K	42.33 ± 0.28
396.35 K	52.48 ± 0.33
401.55 K	61.35 ± 0.38
405.55 K	69.05 ± 0.43
409.55 K	77.59 ± 0.47
413.45 K	86.66 ± 0.51
416.45 K	94.27 ± 0.56
418.95 K	101.08 ± 0.58

Details	refractive index
[2]	1.492 ± 0.0008
